Data: ChEMBL document CHEMBL1201862, “PubChem BioAssay data set” (2004)
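96-well plates; 48 h exposure; 5 concentrations. Endpoints by linear interpolation between flanking doses. Not reached: highest tested concentration assigned. GI50 is the concentration that inhibits growth by half.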 Calls of active or inactive are those of the source. No stated cut-off is given here; in the data, active = GI50 up to about 1.1 µM and inactive = higher.

Legend:
Experiment in all cases: NCI tumour cell line growth inhibition, 48 h
SK-MEL-2 = tested on: SK-MEL-2
LXFL 529 = tested on: LXFL 529
SF-268 = tested on: SF-268
OVCAR-3 = tested on: OVCAR-3
CCRF-CEM = tested on: CCRF-CEM
MOLT-4 = tested on: MOLT-4
SF-539 = tested on: SF-539
U-251 = tested on: U-251
HL-60 = tested on: HL-60
KM12 = tested on: KM12
UACC-257 = tested on: UACC-257
M14 = tested on: M14
NCI-H23 = tested on: NCI-H23
LOX IMVI = tested on: LOX IMVI
HOP-92 = tested on: HOP-92
UO-31 = tested on: UO-31
786-0 = tested on: 786-0
KM-20L2 = tested on: KM-20L2
CAKI-1 = tested on: CAKI-1

Measured: GI50

COc1cc(-c2cccs2)sc1-c1cccs1
inactive: SK-MEL-2 31.5 µM | LXFL 529 45 µM | SF-268 53.6 µM | OVCAR-3 63.8 µM | CCRF-CEM 29.3 µM | MOLT-4 32.6 µM | SF-539 73.8 µM | U-251 43.6 µM | HL-60 14.3 µM | KM12 27.7 µM | UACC-257 39.7 µM | M14 35.3 µM | NCI-H23 15.7 µM | LOX IMVI 46.2 µM | HOP-92 24.5 µM | UO-31 38.2 µM | 786-0 39.3 µM | KM-20L2 26.7 µM

O=C(Nc1nnn[nH]1)c1nc(O)cc(-c2ccccc2)n1
inactive: SK-MEL-2 > 100 µM | LXFL 529 > 100 µM | SF-268 > 100 µM | OVCAR-3 > 100 µM | CCRF-CEM > 100 µM | MOLT-4 > 100 µM | U-251 > 100 µM | HL-60 > 100 µM | KM12 > 100 µM | UACC-257 > 100 µM | M14 > 100 µM | NCI-H23 > 100 µM | CAKI-1 > 100 µM | HOP-92 > 100 µM | UO-31 > 100 µM | 786-0 > 100 µM | KM-20L2 > 100 µM

O=[N+]([O-])c1nccn1COCCBr
inactive: SK-MEL-2 > 100 µM | LXFL 529 > 100 µM | SF-268 > 100 µM | OVCAR-3 > 100 µM | CCRF-CEM > 100 µM | MOLT-4 > 100 µM | SF-539 > 100 µM | U-251 > 100 µM | HL-60 > 100 µM | KM12 > 100 µM | UACC-257 > 100 µM | M14 > 100 µM | NCI-H23 > 100 µM | LOX IMVI > 100 µM | CAKI-1 > 100 µM | HOP-92 > 100 µM | UO-31 > 100 µM | 786-0 > 100 µM | KM-20L2 > 100 µM

Nc1ncc(CN2CCCC2)c(-c2ccccc2O)n1
inactive: SK-MEL-2 > 100 µM | LXFL 529 > 750 µM | SF-268 > 750 µM | OVCAR-3 > 750 µM | CCRF-CEM 8.39 µM | MOLT-4 > 750 µM | SF-539 > 750 µM | U-251 > 750 µM | HL-60 4.31 µM | KM12 > 750 µM | UACC-257 > 750 µM | M14 > 750 µM | NCI-H23 > 750 µM | LOX IMVI 38.4 µM | CAKI-1 > 750 µM | HOP-92 > 750 µM | UO-31 > 750 µM | 786-0 > 750 µM | KM-20L2 > 750 µM

CCOC(=O)C1(Cc2ccccc2)CCCCCN1 (centres undefined)
inactive: LXFL 529 > 100 µM | SF-268 > 100 µM | OVCAR-3 > 100 µM | U-251 > 100 µM | HL-60 > 100 µM | M14 > 100 µM | NCI-H23 > 100 µM | LOX IMVI > 100 µM | CAKI-1 > 100 µM | HOP-92 > 100 µM | UO-31 > 100 µM | 786-0 > 100 µM | KM-20L2 > 100 µM

C=CCCCCCCCCC(=O)NS(=O)(=O)c1ccccc1
inactive: SK-MEL-2 > 100 µM | LXFL 529 > 100 µM | SF-268 > 100 µM | OVCAR-3 > 100 µM | MOLT-4 48.6 µM | SF-539 > 100 µM | U-251 77.4 µM | HL-60 44.7 µM | KM12 73.6 µM | UACC-257 > 100 µM | M14 > 100 µM | NCI-H23 > 100 µM | LOX IMVI > 100 µM | CAKI-1 > 100 µM | HOP-92 56.9 µM | UO-31 30.7 µM | 786-0 > 100 µM | KM-20L2 > 100 µM

CCOC(=O)C1S/C(=N/c2ccc(Cl)cc2C)N=C1C (centres undefined)
inactive: SK-MEL-2 16.4 µM | LXFL 529 18 µM | SF-268 15.7 µM | OVCAR-3 20.8 µM | MOLT-4 9.77 µM | SF-539 17.6 µM | U-251 15.8 µM | HL-60 4.34 µM | KM12 15.5 µM | UACC-257 22.2 µM | M14 19.5 µM | NCI-H23 16.5 µM | LOX IMVI 15 µM | CAKI-1 20.7 µM | HOP-92 15.5 µM | UO-31 17.3 µM | 786-0 15.9 µM | KM-20L2 17.4 µM

Nc1nc(N)c2ncn(CCCC(c3ccccc3)P(=O)(O)O)c2n1 (centres undefined)
inactive: SK-MEL-2 > 100 µM | LXFL 529 > 100 µM | SF-268 > 100 µM | OVCAR-3 > 100 µM | CCRF-CEM > 100 µM | SF-539 > 100 µM | U-251 > 100 µM | HL-60 > 100 µM | KM12 > 100 µM | UACC-257 > 100 µM | M14 > 100 µM | NCI-H23 19.2 µM | LOX IMVI > 100 µM | CAKI-1 > 100 µM | HOP-92 > 100 µM | UO-31 > 100 µM | 786-0 > 100 µM | KM-20L2 > 100 µM

C[C@@H]1[C@H](c2ccccc2)O[B-]2(c3ccc(Br)cc3)OC(=O)C[N+]12C (some centres undefined)
inactive: SK-MEL-2 > 100 µM | LXFL 529 86.5 µM | SF-268 94.2 µM | CCRF-CEM > 100 µM | MOLT-4 86.5 µM | SF-539 > 100 µM | U-251 > 100 µM | HL-60 24.9 µM | KM12 > 100 µM | UACC-257 > 100 µM | M14 > 100 µM | NCI-H23 > 100 µM | LOX IMVI > 100 µM | CAKI-1 53.3 µM | HOP-92 44.3 µM | UO-31 66.5 µM | 786-0 > 100 µM | KM-20L2 > 100 µM

CC1(CO)OC1COCc1ccccc1 (centres undefined)
inactive: SK-MEL-2 > 100 µM | LXFL 529 > 100 µM | SF-268 > 100 µM | OVCAR-3 > 100 µM | CCRF-CEM > 100 µM | MOLT-4 > 100 µM | SF-539 > 100 µM | U-251 > 100 µM | HL-60 > 100 µM | KM12 > 100 µM | UACC-257 > 100 µM | M14 > 100 µM | NCI-H23 > 100 µM | LOX IMVI > 100 µM | HOP-92 > 100 µM | UO-31 > 100 µM | 786-0 > 100 µM | KM-20L2 > 100 µM

C/C(=N\NC(=O)C[n+]1ccccc1)c1sc(-c2nc(C)c(/C(C)=N/NC(=O)C[n+]3ccccc3)s2)nc1C
inactive: SK-MEL-2 > 100 µM | LXFL 529 95.9 µM | SF-268 > 100 µM | OVCAR-3 > 100 µM | CCRF-CEM > 10 µM | MOLT-4 95.9 µM | SF-539 > 100 µM | U-251 > 100 µM | KM12 > 100 µM | UACC-257 > 100 µM | M14 > 100 µM | NCI-H23 > 100 µM | LOX IMVI > 100 µM | CAKI-1 > 100 µM | HOP-92 > 100 µM | UO-31 > 100 µM | 786-0 > 100 µM | KM-20L2 > 100 µM
